Test results from patent US6921532B1, “Biological Bioadhesive composition and methods of preparation and use” (Spinal Restoration, Inc., priority 2000, dated 2005).

Experiment: Solubility / suspension in thrombin reconstituting solution
Settings: aqueous calcium chloride reconstituting solution
From the text: Blended betamethasone sodium phosphate and acetate solutions preferably include anti-caking agent(s) and low calcium chloride concentration(s).

In the case of `C[C@H]1C[C@H]2[C@@H]3CCC4=CC(=O)C=C[C@]4(C)[C@@]3(F)[C@@H](O)C[C@]2(C)[C@@]1(O)C(=O)COP(=O)([O-])[O-].[Na+].[Na+]` [betamethasone sodium phosphate], the solubility is reported as “reduced in the presence of aqueous calcium chloride”.
